Assay results reported in patent publication US20170065564A1, “BIS-CYCLIC GUANIDINE COMPOUND COMPOSITIONS, METHODS OF USE AND TREATMENT THEREOF” (University of South Florida, priority 2014, published 2017).
In brackets after ≈: the same amount, converted by molar mass.

Assays:
[1] = test system: Enterococcus faecium biofilm; experiment: Minimum biofilm eradication concentration (MBEC) assay; assay type: cell-based; settings: 24 h biofilm, purified compound
Experimental: (§1) The minimum biofilm eradication concentration (MBEC) was determined in 96-well microtiter plates as follows. Broth cultures of ESKAPE strains were grown using the conditions described above. Biofilms for each of the ESKAPE pathogens were generated from these as we have previously described for S. aureus, however human serum was not used for non-staphylococcal organisms.^44 46 For all organisms, biofilms were developed by standardizing an overnight culture into fresh media to an OD600 of 0.5 and adding 150 μl into each well of a 96-well microtiter plate. […] These cultures were incubated at 37° C. overnight alongside no drug controls. After 24 hours, the media was removed from wells and the biofilm resuspended in phosphate buffered saline (PBS). Cultures were mixed by vigorous pipetting, before being serially diluted in PBS, and plated in duplicate on relevant agar. Plates were incubated at 37° C. for 24 hours, and CFUs determined by enumeration. Each analysis was performed using three technical replicates, and antibiofilm activity was determined by comparing treated to untreated samples.

[2] = test system: Acinetobacter baumannii biofilm; experiment: as above; assay type: cell-based; settings: 24 h biofilm, purified compound
Experimental: as §1

[3] = test system: Enterobacter cloacae biofilm; experiment: as above; assay type: cell-based; settings: 24 h biofilm, purified compound
Experimental: as §1

A. baumannii = experiment: Resistance serial passage assay; assay type: cell-based, Acinetobacter baumannii; settings: 8 passages, concentration doubled each day
Experimental: (§2) ESKAPE pathogens were grown overnight in liquid media at 37° C. These cultures were then diluted 1:100 in fresh media, and seeded into a 96-well plate. Lead bis-cyclic guanidines or control agents were added to respective wells at half MIC concentrations. Plates were then incubated for 24 hours at 37° C., with bacteria removed from these cultures on the following day, to inoculate fresh media (1:100 dilution) containing compounds at a 2-fold higher concentrations. These were then grown overnight, and the procedure repeated for a total of eight days. […] Each experiment was performed in triplicate, yielding identical results.

K. pneumoniae = experiment: Resistance serial passage assay; assay type: cell-based, Klebsiella pneumoniae; settings: 8 passages, concentration doubled each day
Experimental: as §2

Pseudomonas aeruginosa = experiment: Minimal bactericidal concentration (MBC) assay; assay type: cell-based; settings: purified compound; read-out: MBC90
Experimental: (§3) Briefly, compound was washed by centrifugation and serial dilution, before plating on Tryptic Soy Agar (TSA). Plates were incubated for 24 hours at 37° C. and cell viability assessed by determining CFU/ml at each concentration, for every compound. Percent recovery was then determined compared to CFU/ml from no drug controls. All concentrations and controls were tested using three biological replicates, alongside two technical replicates for each data point.

Klebsiella pneumoniae = experiment: Minimal bactericidal concentration (MBC) assay; assay type: cell-based; settings: purified compound; read-out: MBC90
Experimental: as §3

Acinetobacter baumannii = experiment: Minimal bactericidal concentration (MBC) assay; assay type: cell-based; settings: purified compound; read-out: MBC90
Experimental: as §3

Staphylococcus aureus [4] = experiment: Minimal bactericidal concentration (MBC) assay; assay type: cell-based; settings: purified compound; read-out: MBC90
Experimental: as §3

Enterococcus faecium [5] = experiment: Minimal bactericidal concentration (MBC) assay; assay type: cell-based; settings: purified compound; read-out: MBC90
Experimental: as §3

Enterobacter cloacae [6] = experiment: Minimal bactericidal concentration (MBC) assay; assay type: cell-based; settings: purified compound; read-out: MBC90
Experimental: as §3

Enterococcus faecium [7] = experiment: MIC micro broth dilution assay; assay type: cell-based; design: key to stacked score activity, 100/MIC, E: stacked score = 100/MIC
Method in brief: (§4)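 Multidrug-resistant clinical ESKAPE isolates were grown overnight (Gram-positives in TSB, Gram-negatives in LB), diluted 1:1,000 and exposed to decreasing compound concentrations in DMF (≤2.0% DMF).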

Enterobacter cloacae [8] = experiment: MIC micro broth dilution assay; assay type: cell-based; design: key to stacked score activity, 100/MIC, E: stacked score = 100/MIC
Method in brief: as §4

S. aureus = experiment: Resistance serial passage assay; assay type: cell-based, Staphylococcus aureus; settings: 8 passages, concentration doubled each day
Experimental: as §2

Staphylococcus aureus [9] = experiment: MIC micro broth dilution assay; assay type: cell-based; design: key to stacked score activity, 100/MIC, S: stacked score = 100/MIC
Method in brief: as §4

[10] = panel of E. cloacae clinical isolates

CCCCCCCN1C(=N)N(CCCC[C@H]2CNC(=N)N2CCC23CC4CC(CC(C4)C2)C3)C[C@@H]1CCCC [Compound 19]
MBEC50 [1]: 13.27 µM
MBEC50 [2]: 24.07 µM
MBEC50 [3]: 15.14 µM
increase in MIC after serial passage (A. baumannii): 8 fold
increase in MIC after serial passage (K. pneumoniae): 8 fold
MBC (Pseudomonas aeruginosa): 2.77 µM (≈ 1.5 µg/mL)
MBC (Klebsiella pneumoniae): 2.61 µM (≈ 1.41 µg/mL)
MBC (Acinetobacter baumannii): 4.66 µM (≈ 2.52 µg/mL)
MBC (Staphylococcus aureus [4]): 2.88 µM (≈ 1.56 µg/mL)
MBC (Enterococcus faecium [5]): 3.59 µM (≈ 1.94 µg/mL)
MBC (Enterobacter cloacae [6]): 2.70 µM (≈ 1.46 µg/mL)
stacked score activity, 100/MIC, E (Enterococcus faecium [7]; E. faecium): 33
MIC (Enterococcus faecium [7]; E. faecium isolate 1406): 2.0 µM (≈ 1.08 µg/mL)
MIC (Enterococcus faecium [7]; E. faecium isolate 1407): 2.0 µM (≈ 1.08 µg/mL)
MIC (Enterococcus faecium [7]; E. faecium isolate 1432): 2.0 µM (≈ 1.08 µg/mL)
MIC (Enterococcus faecium [7]; E. faecium isolate 1438): 2.0 µM (≈ 1.08 µg/mL)
MIC (Enterococcus faecium [7]; E. faecium isolate 1439): 2.0 µM (≈ 1.08 µg/mL)
MIC (Enterococcus faecium [7]; E. faecium isolate 1443): 2.0 µM (≈ 1.08 µg/mL)
MIC (Enterococcus faecium [7]; E. faecium isolate 1444): 2.0 µM (≈ 1.08 µg/mL)
MIC (Enterococcus faecium [7]; E. faecium isolate 1449): 2.0 µM (≈ 1.08 µg/mL)
MIC (Enterococcus faecium [7]; E. faecium isolate 1450): 2.0 µM (≈ 1.08 µg/mL)
MIC (Enterococcus faecium [7]; E. faecium isolate 1451): 2.0 µM (≈ 1.08 µg/mL)
MIC (Enterococcus faecium [7]; purified compound, Table 1): 1.66 µM (≈ 0.898 µg/mL)
stacked score activity, 100/MIC, E (Enterobacter cloacae [8]; E. cloacae): 20
MIC (Enterobacter cloacae [8]; E. cloacae isolate 1404): 2.0 µM (≈ 1.08 µg/mL)
MIC (Enterobacter cloacae [8]; E. cloacae isolate 1405): 2.0 µM (≈ 1.08 µg/mL)
MIC (Enterobacter cloacae [8]; E. cloacae isolate 1430): 3.0 µM (≈ 1.62 µg/mL)
MIC (Enterobacter cloacae [8]; E. cloacae isolate 1431): 2.0 µM (≈ 1.08 µg/mL)
MIC (Enterobacter cloacae [8]; E. cloacae isolate 1445): 3.0 µM (≈ 1.62 µg/mL)
MIC (Enterobacter cloacae [8]; E. cloacae isolate 1446): 5.0 µM (≈ 2.7 µg/mL)
MIC (Enterobacter cloacae [8]; E. cloacae isolate 1447): 2.0 µM (≈ 1.08 µg/mL)
MIC (Enterobacter cloacae [8]; E. cloacae isolate 1448): 2.0 µM (≈ 1.08 µg/mL)
MIC (Enterobacter cloacae [8]; E. cloacae isolate 1454): 2.0 µM (≈ 1.08 µg/mL)
MIC (Enterobacter cloacae [8]; E. cloacae isolate 1455): 2.0 µM (≈ 1.08 µg/mL)
concentration inhibiting 70% of strains (Enterobacter cloacae [8]; [10]): 2 µM
concentration inhibiting 90% of isolates (Enterobacter cloacae [8]; [10]): 5 µM
MIC (Enterobacter cloacae [8]; purified compound, Table 1): 1.66 µM (≈ 0.898 µg/mL)
increase in MIC after serial passage (S. aureus): 16 fold
stacked score activity, 100/MIC, S (Staphylococcus aureus [9]; S. aureus): 33
MIC (Staphylococcus aureus [9]; S. aureus isolate 542): 2.0 µM (≈ 1.08 µg/mL)
MIC (Staphylococcus aureus [9]; S. aureus isolate 626): 2.0 µM (≈ 1.08 µg/mL)
MIC (Staphylococcus aureus [9]; S. aureus isolate 635): 2.0 µM (≈ 1.08 µg/mL)
MIC (Staphylococcus aureus [9]; S. aureus isolate 648): 2.0 µM (≈ 1.08 µg/mL)
MIC (Staphylococcus aureus [9]; S. aureus isolate 690): 2.0 µM (≈ 1.08 µg/mL)
MIC (Staphylococcus aureus [9]; S. aureus isolate 693): 2.0 µM (≈ 1.08 µg/mL)
MIC (Staphylococcus aureus [9]; S. aureus isolate 715): 2.0 µM (≈ 1.08 µg/mL)
MIC (Staphylococcus aureus [9]; S. aureus isolate 728): 2.0 µM (≈ 1.08 µg/mL)
MIC (Staphylococcus aureus [9]; S. aureus isolate 834): 2.0 µM (≈ 1.08 µg/mL)
MIC (Staphylococcus aureus [9]; S. aureus isolate 1043): 2.0 µM (≈ 1.08 µg/mL)
MIC (Staphylococcus aureus [9]; S. aureus isolate 1049): 2.0 µM (≈ 1.08 µg/mL)
MIC (Staphylococcus aureus [9]; purified compound, Table 1): 1.66 µM (≈ 0.898 µg/mL)
